The source made the active and inactive calls. Cut-off read from the data, not from the text of the source, for most assays here: actives have a measured IC50 and inactives only a lower limit.
How the values were obtained:
[1] = biological target: T1, Sentrin-specific protease 8 (Homo sapiens, UniProt Q96LD8); assay: inhibition of human SENP8 cleavage activity – biochemical, luminescence, SAR follow-up (AID 504501); type: functional
T1 sequence (Q96LD8 whole entry): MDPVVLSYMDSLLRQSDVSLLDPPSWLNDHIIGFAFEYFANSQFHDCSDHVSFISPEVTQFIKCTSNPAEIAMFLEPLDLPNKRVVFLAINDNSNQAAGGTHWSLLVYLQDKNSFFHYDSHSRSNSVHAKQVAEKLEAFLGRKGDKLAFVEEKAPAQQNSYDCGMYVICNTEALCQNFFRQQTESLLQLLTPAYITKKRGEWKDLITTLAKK

Caspase-3 [2] = biological target: T2, Caspase-3 (Homo sapiens, UniProt P42574); assay: inhibition of recombinant caspase-3 activity – biochemical, luminescence, set 2, selectivity assay for SENP protease inhibitor project, SAR follow-up (AID 588599); type: functional
T2 sequence (P42574 whole entry): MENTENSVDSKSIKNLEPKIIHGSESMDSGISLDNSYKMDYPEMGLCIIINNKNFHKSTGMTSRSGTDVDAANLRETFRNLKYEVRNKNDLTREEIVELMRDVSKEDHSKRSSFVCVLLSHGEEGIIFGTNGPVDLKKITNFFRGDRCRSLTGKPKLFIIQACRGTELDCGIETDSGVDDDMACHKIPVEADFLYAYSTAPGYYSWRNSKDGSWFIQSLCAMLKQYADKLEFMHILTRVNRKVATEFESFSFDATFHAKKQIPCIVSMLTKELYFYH

[3] = biological target: T1, Sentrin-specific protease 8; assay: inhibition of sentrin protease 8 – biochemical, luminescence, set 2, SAR follow-up (AID 588601); type: functional
Caspase-3 [4] = biological target: T2, Caspase-3; assay: SAR Analysis of small molecule inhibitors of Sentrin-specific proteases (SENPs) using a Caspase-3 Selectivity assay. [Related pubchem assays (depositor defined):AID2540, AID2599, AID434973, AID489001]; type: functional
[5] = biological target: T3, Sentrin-specific protease 7 (Homo sapiens, UniProt Q9BQF6); assay: inhibition of human SENP7 cleavage activity – biochemical, luminescence, set 2, SAR follow-up (AID 588600); type: functional
T3 sequence (Q9BQF6 whole entry): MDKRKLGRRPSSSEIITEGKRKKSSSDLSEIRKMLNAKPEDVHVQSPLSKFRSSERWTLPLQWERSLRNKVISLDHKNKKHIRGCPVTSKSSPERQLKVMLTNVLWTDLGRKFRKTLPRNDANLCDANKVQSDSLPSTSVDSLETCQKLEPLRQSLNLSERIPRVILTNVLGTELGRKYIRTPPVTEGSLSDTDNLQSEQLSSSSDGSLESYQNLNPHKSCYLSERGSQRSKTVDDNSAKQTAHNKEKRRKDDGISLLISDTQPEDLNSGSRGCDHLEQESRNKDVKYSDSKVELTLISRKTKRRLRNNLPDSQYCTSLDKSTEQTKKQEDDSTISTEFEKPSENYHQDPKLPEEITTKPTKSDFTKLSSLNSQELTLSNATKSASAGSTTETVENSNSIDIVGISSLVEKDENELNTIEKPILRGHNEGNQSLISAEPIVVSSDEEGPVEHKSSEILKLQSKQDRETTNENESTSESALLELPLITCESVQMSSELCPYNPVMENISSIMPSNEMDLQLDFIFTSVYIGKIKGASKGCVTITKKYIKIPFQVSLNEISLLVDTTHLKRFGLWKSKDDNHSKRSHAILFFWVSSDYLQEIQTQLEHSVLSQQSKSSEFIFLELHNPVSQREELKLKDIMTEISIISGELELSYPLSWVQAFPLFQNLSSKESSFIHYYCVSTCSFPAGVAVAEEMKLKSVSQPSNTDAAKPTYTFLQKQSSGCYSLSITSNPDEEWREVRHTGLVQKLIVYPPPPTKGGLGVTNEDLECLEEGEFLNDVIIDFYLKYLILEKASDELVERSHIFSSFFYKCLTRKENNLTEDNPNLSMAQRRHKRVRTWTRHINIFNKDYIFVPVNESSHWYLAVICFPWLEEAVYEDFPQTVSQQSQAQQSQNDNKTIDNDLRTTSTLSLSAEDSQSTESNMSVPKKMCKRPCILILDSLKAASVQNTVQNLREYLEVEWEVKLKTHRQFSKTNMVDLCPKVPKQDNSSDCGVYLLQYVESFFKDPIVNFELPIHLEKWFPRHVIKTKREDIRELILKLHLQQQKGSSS

[6] = biological target: T4, Sentrin-specific protease 6 (Homo sapiens, UniProt Q9GZR1); assay: SAR Analysis of small molecule inhibitors of Sentrin-specific protease 6 (SENP6) using a Luminescent assay. [Related pubchem assays (depositor defined):AID2582, AID2599]; type: functional
T4 sequence (Q9GZR1 whole entry): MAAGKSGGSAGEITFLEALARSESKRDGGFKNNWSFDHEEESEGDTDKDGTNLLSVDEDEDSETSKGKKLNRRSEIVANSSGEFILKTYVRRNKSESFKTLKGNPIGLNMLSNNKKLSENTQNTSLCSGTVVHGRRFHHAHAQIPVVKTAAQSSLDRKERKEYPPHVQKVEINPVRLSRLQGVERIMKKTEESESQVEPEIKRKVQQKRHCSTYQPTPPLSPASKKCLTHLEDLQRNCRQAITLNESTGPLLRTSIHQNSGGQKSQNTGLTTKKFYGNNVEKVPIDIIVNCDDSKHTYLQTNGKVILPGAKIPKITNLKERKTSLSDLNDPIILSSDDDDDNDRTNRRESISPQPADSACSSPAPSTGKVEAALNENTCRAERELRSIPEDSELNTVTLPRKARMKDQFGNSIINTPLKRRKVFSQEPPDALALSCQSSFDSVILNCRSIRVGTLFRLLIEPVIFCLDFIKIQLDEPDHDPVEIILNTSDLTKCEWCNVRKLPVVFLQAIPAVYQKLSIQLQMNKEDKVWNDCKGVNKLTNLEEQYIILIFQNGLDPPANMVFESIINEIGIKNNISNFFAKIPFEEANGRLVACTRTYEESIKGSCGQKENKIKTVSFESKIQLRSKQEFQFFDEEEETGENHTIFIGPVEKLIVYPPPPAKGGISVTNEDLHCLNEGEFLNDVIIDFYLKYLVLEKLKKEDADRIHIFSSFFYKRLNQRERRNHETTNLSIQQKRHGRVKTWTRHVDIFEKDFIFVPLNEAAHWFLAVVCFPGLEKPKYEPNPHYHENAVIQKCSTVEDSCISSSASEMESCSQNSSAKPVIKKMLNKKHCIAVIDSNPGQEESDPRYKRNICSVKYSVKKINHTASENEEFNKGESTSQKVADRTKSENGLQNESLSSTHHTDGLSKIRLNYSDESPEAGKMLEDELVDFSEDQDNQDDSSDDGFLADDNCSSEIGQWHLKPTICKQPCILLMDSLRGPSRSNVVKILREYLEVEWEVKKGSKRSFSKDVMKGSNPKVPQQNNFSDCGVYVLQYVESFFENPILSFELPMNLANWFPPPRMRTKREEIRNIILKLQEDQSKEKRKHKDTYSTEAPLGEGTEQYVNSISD

[7] = biological target: T4, Sentrin-specific protease 6; assay: inhibition of human SENP6 catalytic domain – biochemical, luminescence, set 2, SAR follow-up (AID 588598); type: functional
[8] = biological target: T3, Sentrin-specific protease 7; assay: inhibition of human SENP7 cleavage activity – biochemical, luminescence, SAR follow-up (AID 504497); type: functional
Insulin-degrading enzyme [9] = biological target: T5, Insulin-degrading enzyme (Homo sapiens, UniProt P14735); assay: recombinant IDE activation, cell-free – biochemical, fluorescence polarization, counter-screen for IDE activator project, dose response (AID 588681)
T5 sequence (P14735 whole entry): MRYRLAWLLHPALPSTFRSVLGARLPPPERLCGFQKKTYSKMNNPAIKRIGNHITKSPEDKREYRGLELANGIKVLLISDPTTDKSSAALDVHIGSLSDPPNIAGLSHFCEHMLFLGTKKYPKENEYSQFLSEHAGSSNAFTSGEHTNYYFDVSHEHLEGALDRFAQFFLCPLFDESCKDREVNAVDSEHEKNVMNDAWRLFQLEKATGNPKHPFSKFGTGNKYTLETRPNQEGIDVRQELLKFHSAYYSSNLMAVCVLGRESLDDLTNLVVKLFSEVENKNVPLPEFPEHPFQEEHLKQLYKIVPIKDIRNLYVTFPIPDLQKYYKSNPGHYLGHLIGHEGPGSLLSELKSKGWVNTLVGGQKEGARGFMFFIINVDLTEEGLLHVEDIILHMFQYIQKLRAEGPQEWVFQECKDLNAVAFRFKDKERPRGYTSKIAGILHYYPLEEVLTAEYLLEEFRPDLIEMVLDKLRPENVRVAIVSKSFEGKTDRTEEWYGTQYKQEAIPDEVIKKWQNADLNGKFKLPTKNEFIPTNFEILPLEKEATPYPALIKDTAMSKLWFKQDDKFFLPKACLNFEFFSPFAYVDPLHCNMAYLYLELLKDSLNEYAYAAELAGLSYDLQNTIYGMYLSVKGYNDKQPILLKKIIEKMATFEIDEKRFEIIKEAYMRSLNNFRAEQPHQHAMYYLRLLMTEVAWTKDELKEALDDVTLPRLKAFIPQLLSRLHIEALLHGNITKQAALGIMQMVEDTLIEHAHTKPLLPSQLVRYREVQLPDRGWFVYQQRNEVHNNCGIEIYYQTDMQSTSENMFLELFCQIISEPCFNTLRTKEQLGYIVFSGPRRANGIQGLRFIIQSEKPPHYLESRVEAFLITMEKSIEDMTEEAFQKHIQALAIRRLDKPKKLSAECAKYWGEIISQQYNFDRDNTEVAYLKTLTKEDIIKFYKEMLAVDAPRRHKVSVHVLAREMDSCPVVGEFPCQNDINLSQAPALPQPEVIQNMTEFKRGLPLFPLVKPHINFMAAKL

Insulin-degrading enzyme [10] = biological target: T5, Insulin-degrading enzyme; assay: cellular IDE activation of Abeta substrate cleavage – fluorescence polarization, HEK cells, dose response (AID 588439); type: functional, cell-based
HEK293 [11] = assay: membrane integrity loss in HEK cells – cell-based, fluorescence, cytotoxicity control for IDE activator project, dose response (AID 588440); type: functional; settings: Homo sapiens;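 note: cytotoxicity by LDH release measuring loss of membrane integrity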
HEK293 [12] = assay: optical interference in Abeta FP readout, dose response, artefact control for IDE activator project, biochemical, fluorescence polarization (AID 588442); type: functional, cell-based; settings: Homo sapiens

Row | Structure (SMILES) | IC50 [1] | IC50 (Caspase-3 [2]) | IC50 [3] | IC50 (Caspase-3 [4]) | IC50 [5] | IC50 [6] | IC50 [7] | IC50 [8] | EC50 (Insulin-degrading enzyme [9]) | EC50 (Insulin-degrading enzyme [10]) | IC50 (HEK293 [11]) | EC50 (HEK293 [12])
1 | Oc1ccccc1-c1nc(/C=C/c2ccccc2Cl)no1 | 1200 nM (active) | 1440 nM (active) | 1290 nM (active) | 1200 nM (active) | 1360 nM (active) | 1200 nM (active) | 1350 nM (active) | 1000 nM (active) | – | – | – | –
2 | CC(C)CN1CCC(=O)N([C@H](CO)c2ccccc2)CC1 | – | – | – | – | – | – | – | – | > 54700 nM (inactive) | > 54700 nM (inactive) | > 89300 nM (inactive) | > 54700 nM (inactive)

— ChEMBL document CHEMBL1201862, “PubChem BioAssay data set” (2004)
